# Test system: influenza NAs
row,Substance,resistance of immobilized sialoside to NA-catalyzed cleavage during BLI incubation
1,4-Guanidino-Neu5Acα2-3LacNAcβPorNH-PEG4-Biotin [Compound 10d],resistant to the NA-catalyzed cleavage
2,4NH2Neu5Acα2-3LacNAcβPorNH-PEG4-Biotin [Compound 9d],bound to the NAs but was partially cleaved off during the incubation
